Measurements: paper PMC6479099, “Aminoguanidines: New leads for treatment of Giardia duodenalis infection” (International Journal for Parasitology: Drugs and Drug …, 2019)

Assays:
[1] = tested on: Giardia trophozoites (BAH2c2); experiment: Proliferation of Giardia trophozoites (resazurin, 96 h); type: cell-based, Giardia duodenalis; settings: BAH2c2, 1000 trophozoites per well, read-out: IC50prol, Assemblage A (50% inhibition in the proliferation assay)
Method: The effect of the compounds on the proliferation of Giardia trophozoites was determined following the protocol outlined above, with the following modifications. The number of trophozoites was decreased to 1000 per well and the cells were incubated in the presence of each compound for 96 h at 37 °C.
The IC50 of each compound was determined using a resazurin reduction assay, which measures the metabolic activity of cells, using the log (inhibitor) vs. normalised response – variable slope function in Graphpad Prism. The compounds were tested against an assemblage A (BAH2c2, 24 h) and an assemblage B (BAH12, 24 h) isolate (Table 1). […] The effect of the compounds on the proliferation of Giardia trophozoites (BAH2c2) was also determined.

[2] = In vitro cytotoxicity (WST-1), human lung fibroblast; type: cell-based; settings: HEL 299 human lung fibroblast cells, 24 h exposure
Method: (§1) Cells were passaged every 3 days. Assays were performed in 96 well plates in duplicate. Wells were seeded with 50 000 cells.

[3] = In vitro cytotoxicity (WST-1), human hepatocellular carcinoma; type: cell-based; settings: Hep G2 human hepatocellular carcinoma cells, 24 h exposure
Method: as §1

[4] = tested on: Giardia duodenalis trophozoites; experiment: Modified adherence assay; type: cell-based; settings: 4 μM, 5 h exposure
Method: A second screening method, based on counting adherent trophozoites, was developed and used to validate the primary screen method, modified from earlier adherence assay protocols ([Crouch et al., 1986]). The assay was prepared in 24 well plates with plastic coverslips placed in the bottom. Trophozoites were prepared as above by placing on ice and ∼5 × 10^5 cells/mL were added to each well. Drugs prepared in DMSO were added at the required concentration, with the DMSO concentration never exceeding 1%. Assay plates were incubated for 5 h at 37 °C under anaerobic conditions, the media removed and cells adhering to the coverslips were fixed with glutaraldehyde or methanol. Once the coverslips were dry, cells were stained with a Romanowsky stain variant (Rapid stain), fixed to a glass slide and imaged at 10x or 100x magnification. Images (10x magnification) were processed with DotCount v1.2 software (http://reuter.mit.edu/, 2008–2012 ^© Martin Reuter) to count the number of cells present and data analysed using GraphPad Prism version 6.00 for Windows, GraphPad Software, La Jolla California USA, www.graphpad.com. Images (100x magnification) were assessed for obvious morphological changes.
The results for the in vitro drug efficacy studies were analysed using GraphPad Prism version 6.00 for Windows, GraphPad Software, La Jolla California USA, www.graphpad.com. For the resazurin reduction assay the mean and standard error of the mean were determined with each assay completed in triplicate. The IC50 was calculated using the log (inhibitor) vs. normalised response – variable slope function in Graphpad Prism. For the adherence assay mean and standard error of the mean were calculated and data analysed using an unpaired t-test, relative to untreated control.
Fig. 3 Inhibition of adherence of Giardia duodenalis by metronidazole (Mz), robenidine, NCL 062 and NCL 099. Cells were exposed to the compounds for 5 h before staining. Stained cells were imaged at 10x magnification and counted using DotCount™ software. Each assay was completed in triplicate and 5 images taken per sample. Top. Number of adherent trophozoites after exposure to 4 μM of each compound for 5 h; Bottom. An example of the Dotcount software identifying trophozoites at higher magnification. Left: stained trophozoites, Right: highlighted trophozoites identified by the Dotcount software. Each highlighted cell is counted individually. Error ± SEM. * p-value <0.05, ** p-value <0.0001.

[5] = tested on: G. duodenalis trophozoites; experiment: Giardia recovery assay; type: cell-based, Giardia duodenalis; settings: 5 h at 5x the IC50, counts at 24 and 48 h post exposure
Method: G. duodenalis trophozoites were harvested on ice as outlined above and 5 × 10^5 cells/mL were added to 1.5 mL centrifuge tubes. […] After exposure cells were collected by placing tubes on ice for 40 min followed by centrifugation at 900×g for 5 min. The supernatant was removed and cells were resuspended in 8 mL of fresh media (in a 9 mL culture tube). The number of trophozoites was counted using a haemocytometer and cells were incubated for 48 h with cell numbers being determined at 24 and 48 h.
Fig. 7 Recovery assay of Giardia duodenalis exposed to robenidine and metronidazole. Giardia trophozoites were exposed to robenidine or metronidazole for 5 h at 5x the IC50. Key: closed circle – growth control, triangle – metronidazole, square – robenidine, open circle – NCL 062, diamond – NCL 099. Cell numbers were determined at 24 and 48 h post exposure. Error ± SD.

bacteria = experiment: Off-target antibacterial effects; type: cell-based
[6] = In vitro cytotoxicity, murine macrophage cells; settings: mouse

SMILES: N=C(N/N=C/c1ccc(Cl)cc1)N/N=C/c1ccc(Cl)cc1 [Robenidine, robenidine]
- IC50 [1]: 1.2 ± 0.7 µM
- GI50 at 24 h [2]: 17.7 µM
- GI50 at 24 h [3]: 25.5 µM
- Effect on adherence of trophozoites [4]: complete inhibition of adherence
- Recovery of trophozoites after short-term exposure [5]: unable to recover
- Off-target antibacterial effects (bacteria): off-target antibacterial effects
- GI50 [6]: 17.1 µM
